The structures appear in SMILES notation. Where two headings read alike, the source gives them in different places.

Series [1] can be described thus: Recovery of steroid glycoside and free steroid from intestinal contents and tissues after intragastric administration. To be noted: for recovery at 4 h: po. The series is classed as in vivo, Sprague-Dawley rats. As for the experimental part:
Male, Sprague-Dawley rats (ca 250 g) were maintained on laboratory rat chow and water ad lib. These rats were fasted overnight (16 hr.) prior to administration of glucoside or free steroid. Water bottles were removed from the cages at least 30 min prior to drug administration. Prednisolone glucoside, 2, (7.5 mg) or dexamethasone glucoside, 1, (7.5 mg) was administered by gastric intubation as a solution (0.5 mL) of water/95% ethanol (3:1). Prednisolone, 4, (5.25 mg) or dexamethasone, 3, (5.1 mg) was administered as a solution (0.5 mL) of water/95% ethanol (1:1). After the appropriate interval of time -3, 4, 5 or 6 hr.- the animals were sacrificed by carbon dioxide anesthesia followed by thoractomy. The small intestine and cecum were removed and cut into segments. Contents were separated from the tissues by rinsing the segments with cold, 0.9% saline (5.0 mL). The contents were immediately diluted to 30 mL with methanol. The tissues were suspended in 0.01 M KH2P04 (5.0 mL). Then an internal standard, either prednisolone, 4, or dexamethasone, 3, depending on the experimental steroid, was added to all the samples. Both the contents and tissues were then homogenized with a Polytron Homogenizer (Brinkman Inst. Co.) at med. speed for 1-2 min. The contents were then diluted to 40 mL total volume with methanol. The tissues were diluted to 25 mL total volume with methanol. All the samples were centrifuged (5,000 g, 15 min) and then the supernatant solutions were passed through membrane filters (0.45 micrometers, Versapor 800). The samples (1.4 mL) were then diluted with 0.01 M KH2PO4 (0.6 mL) and 20 microliters of the resulting solution injected directly onto the HPLC column for analysis.

A short description of series [2]: Incubation with homogenized rat feces. It counts as in vitro ADME. The conditions noted are these: pH 7.5. As for the experimental part: Glucosides 1 and 2 (5.0 mg) were also incubated at 37 °C with homogenized rat feces (0.5 g/10 milliliters 0.01 M phosphate buffer, pH 7.5). The feces were obtained from rats maintained on a high cellulose diet. […] Aliquots (0.2 milliliters) were removed and quenched with MeOH (3.66 milliliters). After centrifugation (5,000g, 10 min), the samples were passed through membrane filters (0.45 micrometer pore, Versapor 450, Gelman Sciences, Inc.). They were then diluted (1:1) with 0.01 M KH2PO4. Twenty microliters of the resulting solution were injected directly onto the HPLC column for analysis.

The test system of series [3] is beta-glucosidase (EC 3.2.1.21, from almonds). The series can be described thus: Hydrolysis by commercial beta-glucosidase. The conditions noted are these: 37 C, acetate buffer pH 5.0. It counts as biochemical. As for the experimental part: Prednisolone glucoside, 2, (5.0 mg) or dexamethasone glucoside, 1, (5.0 mg) was incubated at 37 °C in an […] acetate buffer, pH 5.0 (10.0 mL) with beta-glucosidase (EC 3.2.1.21, from almonds, one unit liberates 1.0 micromole of glucose from salicin per min at pH 5.0 at 370C). Prednisolone glucoside, 2, and dexamethasone glucoside, 1, were treated with 50 and 500 units of enzyme, respectively. At various times, aliquots (0.1 mL) were removed and quenched with methanol (9.9 mL).

Series [4] is described as follows: Rate of hydrolysis in homogenized distal small intestine contents. To be noted: DSI contents; 1.0 mM prodrug, 37 C; release of free steroid by HPLC.
Excerpt: (§1) (The entire small intestine was divided into two, equal length segments to give PSI and DSI.) Gastrointestinal contents were obtained from male, Sprague-Dawley rats (300-400 g) which had been maintained on a stock diet (Purina rat chow) and water ad libitum. The intestinal contents of each section were pooled from four animals for each assay. […] Following removal, the contents were quickly weighed, then diluted to 100 milliliters (stomach, PSI, and DSI) or 200 milliliters (cecum) with cold 0.01 M phosphate buffer, pH 7.0. […] Homogenates were then stored on ice (ca 30 min). […] The reaction was run at 37 °C in a shaking water bath. The reaction was stopped after 10, 20, or 30 min by addition of 0.2 N NaOH (0.25 milliliters).
(§2) Stomach and PSI contents were diluted to 50 mL with 0.01 M phosphate buffer, pH 7.0, DSI contents to 25 mL, and cecal contents to 200 mL, prior to homogenization. The homogenates (2.1 mL of stomach, PSI, and DSI and 1.7 mL of cecum) were added to the appropriate substrate solution (0.01 M phosphate buffer, pH 7.0) to give 1.0 mM substrate in a total volume of 2.5 mL. At various times up to 30 min, aliquots (0.3 mL) were removed and quenched with MeOH (4.7 mL). After centrifugation (5,000 g, 10 min), the samples were diluted (1:1) with 0.01 M KH2PO4 and 20 microliters of the resulting solution was injected directly onto the HPLC column for analysis.
The nature of series [5]: Rate of hydrolysis in homogenized proximal small intestine contents. To be noted: PSI contents; 1.0 mM prodrug, 37 C; release of free steroid by HPLC.
Series [6] is described as follows: Rate of hydrolysis in homogenized stomach contents. The conditions noted are these: 1.0 mM prodrug, 37 C, release of free steroid by HPLC.
A short description of series [7]: Rate of hydrolysis in homogenized cecal contents. To be noted: cecal contents; 1.0 mM prodrug, 37 C; release of free steroid by HPLC.
Excerpt: as §1, §2
Series [8] can be described thus: KM(app) and Vmax determinations (Eadie-Hofstee plots). It counts as in vitro ADME, rat. To be noted: prodrug 0.5-48 micromolar, 0.8 mL cecal homogenate, 15 min, 37 C; release of free steroid by HPLC; listed as glucoside 2. As for the experimental part:
KM(app) and VMax Determinations. The KM(app)-Vmax for the hydrolysis of p-NP-glc and p-NP-gal were determined using pooled cecal homogenates (200 mL) as described above. A range of substrate (56-1000 micromolar; final volume 2.25 mL) concentrations, spanning their apparent KM, was used for each reaction. The amount of cecal homogenate used was 0.04 mL. Velocities were obtained, in duplicate, at 37 °C in a shaking water bath and the reaction stopped by addition of 0.2 N NaOH (0.25 mL) after 15 min. Release of p-nitrophenol was measured spectrophotometrically at 403 nm. Eadie-Hofstee plots were used to determine the KM(app) (micromolar) and Vmax (micromolar/min/g) of both reactions. The wet weight (g), measured immediately after removal and pooling, was used throughout.
Again, cecal contents from four rats were pooled, weighed, diluted (100 mL, 0.01 M phosphate buffer, pH 7.0) and homogenized. A range of substrate concentrations (0.5-48 micromolar, final volume 2.5 mL) spanning the apparent KM, was used for each reaction. The amount of cecal homogenate used was 0.8 mL. Reactions were run, in duplicate, at 37°C in a shaking water bath. After 15 min, the reactions were stopped by removing aliquots (0.3 mL) and quenching them with MeOH (4.7 mL). […] Again, Eadie-Hofstee plots were used to determine the KM(app) and VMax.

A word on the Km: it is the substrate concentration at which the rate is half of its maximum. In general, Vmax refers to the rate approached at saturating substrate. For `CC12C=CC(=O)C=C1CCC1C2C(O)CC2(C)C1CCC2(O)C(=O)COC1OC(CO)C(O)C(O)C1O` [Compound 2, 11 beta, 17 alpha-Dihydroxy-3, 20-dioxopregna-l, 4-dien-21-yl beta-D-glucopyranoside], the recovery at 4 h was less than 15% in series [1] (in vivo, rat, 7.5 mg glucoside intragastric, estimated from unhydrolyzed glucoside in lower small intestine at 4 h, read-out: part of an oral dose of glucoside that reached (was delivered to) the cecum) and 14.8% in series [1] (rat, in vivo, 7.5 mg, 4 h after 7.5 mg glucoside, rat, read-out: administered dose recovered from the lower small intestine contents unhydrolyzed). Besides, the “time to reach the colon” value in series [1] (rat, in vivo) was in the range of 4 to 5 h. In series [1] (sixteen rats per glucoside, sacrifice at 3-6 h), the “animals in which the administered dose reached the cecum by the time of sacrifice” value was “eight of sixteen animals”. Moreover, in series [2], the “hydrolysis on incubation with homogenized rat feces” value is listed as “extensive hydrolysis”. Further, the “relative rate of hydrolysis by commercial beta-glucosidase” value is on record as “several orders of magnitude faster than was glucoside 1” in series [3] (listed as Glucoside 2) and “much more active towards glucoside 2 than towards glucoside 1” in series [3] (listed as glucoside 2). Moreover, the Sp. act. in series [4] is given as 56.8 nmoles/min/g wet weight; in series [5], 12.2 nmoles/min/g wet weight; in series [6] it was 6.8 nmoles/min/g wet weight; in series [7] it was 265 nmoles/min/g wet weight. In addition, the Tot. act. in series [4] turned out to be 1.0 µmol/min; in series [5], 0.07 µmol/min; in series [6], 0.12 µmol/min; in series [7], 6.6 µmol/min. Moreover, the Km in series [8] turned out to be 4.5 µM. Besides, the maximal velocity (Vmax) in series [8] was 2.6 µM/min/g.
